Reference: patent US10172868B2, “Substituted quinazolines for inhibiting kinase activity” (NeuPharma, Inc., priority 2013, dated 2019)

How the values were obtained:
[1] = molecular target: EGFR (ErbB1) (Homo sapiens (Human), UniProt P00533); experiment: Z'-LYTE kinase inhibition assay, EGFR; type: biochemical; settings: read-out: % inhibition against EGFR (Compound at 0.041 μM)
Protocol: Inhibitory activities of compounds against BTK, EGFR and EGFR mutants (EGFR L858R, EGFR T790M, EGFR L858R/T790M), FGFR1, FGFR2, JAK2, JAK3 and KDR were measured by Invitrogen using Z'-LYTE® Method as briefly described in the following. Test Compounds are screened in 1% DMSO (final) in the well. For 10 point titrations, 3-fold serial dilutions are conducted from the starting concentration. All ATP Solutions are diluted to a 4× working concentration in Kinase Buffer (50 mM HEPES pH 7.5, 0.01% BRIJ-35, 10 mM MgCl2, 1 mM EGTA). Peptide/Kinase Mixtures are diluted to a 2× working concentration in the appropriate Kinase Buffers as described below. (i) Peptide/Kinase Mixtures for Measurement of EGFR (ErbB1): The 2×EGFR (ErbB1)/[…] mixture is prepared in 50 mM HEPES pH 7.5, 0.01% BRIJ-35, 10 mM MgCl2. 4 mM MnCl2, 1 mM EGTA, 2 mM DTT. The final 10 μL Kinase Reaction consists of 1.1-5.25 ng EGFR (ErbB1) and 2 μM […] in 50 mM HEPES pH 7.5, 0.01% BRIJ-35, 10 mM MgCl2, 2 mM MnCl2. 1 mM EGTA, 1 mM DTT. After the 1 hour Kinase Reaction incubation, 5 μL of a 1:64 dilution of Development Reagent B is added. Reaction starts by 30-second shaking of mixture consisting of 2.5 μL 4× test compound, […] 2× kinase reaction mixture and 2.5 μL 4×ATP Solution on Bar-coded Corning, low volume NBS, black 384-well plate (Corning Cat. #3676). Then the mixture is incubated for 60-minute at room temperature for the kinase reaction, followed by addition of 5 μL of a 1:1024 dilution of development reagent A and 30-second plate shake. The mixture is then incubated for another 60-minute at room temperature for development reaction. Finally fluorescence is read by plate reader. To determine IC50 of a compound against EGFR, EGFR mutant and other kinases, a series of concentrations of the compound were tested for the inhibition.

[2] = molecular target: EGFR (ErbB1) T790M L858R (Homo sapiens (Human), UniProt P00533, L858R/T790M); experiment: Z'-LYTE kinase inhibition assay, EGFR L858R/T790M; type: biochemical; settings: read-out: % inhibition against EGFR L858R/T790M (Compound at 0.0137 μM)
Sequence of EGFR (ErbB1) T790M L858R (P00533 25-1210 T790M/L858R): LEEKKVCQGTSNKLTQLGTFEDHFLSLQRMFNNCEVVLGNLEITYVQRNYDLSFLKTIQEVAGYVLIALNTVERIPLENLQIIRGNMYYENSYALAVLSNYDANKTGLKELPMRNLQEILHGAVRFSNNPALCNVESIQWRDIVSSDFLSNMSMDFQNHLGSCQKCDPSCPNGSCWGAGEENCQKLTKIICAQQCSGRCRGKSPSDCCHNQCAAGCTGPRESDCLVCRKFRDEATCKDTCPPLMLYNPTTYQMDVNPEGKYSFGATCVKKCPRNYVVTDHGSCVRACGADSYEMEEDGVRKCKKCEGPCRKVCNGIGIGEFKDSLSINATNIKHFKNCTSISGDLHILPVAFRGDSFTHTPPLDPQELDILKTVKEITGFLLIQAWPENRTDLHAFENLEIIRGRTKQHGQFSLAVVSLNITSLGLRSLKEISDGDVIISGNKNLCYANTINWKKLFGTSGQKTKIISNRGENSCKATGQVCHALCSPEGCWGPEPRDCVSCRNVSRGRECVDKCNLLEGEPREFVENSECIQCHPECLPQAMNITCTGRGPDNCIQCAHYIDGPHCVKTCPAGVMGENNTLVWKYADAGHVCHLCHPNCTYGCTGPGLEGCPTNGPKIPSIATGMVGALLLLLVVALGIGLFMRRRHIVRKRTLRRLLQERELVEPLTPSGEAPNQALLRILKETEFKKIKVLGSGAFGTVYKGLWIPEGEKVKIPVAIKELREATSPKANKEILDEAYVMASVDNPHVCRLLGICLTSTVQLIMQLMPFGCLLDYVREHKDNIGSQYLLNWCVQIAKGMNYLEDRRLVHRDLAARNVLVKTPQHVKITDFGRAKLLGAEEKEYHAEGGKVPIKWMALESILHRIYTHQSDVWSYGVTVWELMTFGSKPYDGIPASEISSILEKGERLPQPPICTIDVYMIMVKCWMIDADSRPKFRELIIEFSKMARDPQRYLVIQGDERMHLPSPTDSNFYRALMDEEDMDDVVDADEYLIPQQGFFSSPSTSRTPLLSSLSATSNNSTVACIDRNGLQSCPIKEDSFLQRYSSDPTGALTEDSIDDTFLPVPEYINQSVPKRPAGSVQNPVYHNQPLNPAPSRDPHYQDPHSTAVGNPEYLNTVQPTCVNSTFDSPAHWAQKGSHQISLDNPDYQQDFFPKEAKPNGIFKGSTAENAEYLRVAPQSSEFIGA
Protocol: Inhibitory activities of compounds against BTK, EGFR and EGFR mutants (EGFR L858R, EGFR T790M, EGFR L858R/T790M), FGFR1, FGFR2, JAK2, JAK3 and KDR were measured by Invitrogen using Z'-LYTE® Method as briefly described in the following. Test Compounds are screened in 1% DMSO (final) in the well. For 10 point titrations, 3-fold serial dilutions are conducted from the starting concentration. All ATP Solutions are diluted to a 4× working concentration in Kinase Buffer (50 mM HEPES pH 7.5, 0.01% BRIJ-35, 10 mM MgCl2, 1 mM EGTA). Peptide/Kinase Mixtures are diluted to a 2× working concentration in the appropriate Kinase Buffers as described below. (iv) Peptide/Kinase Mixtures for Measurement of EGFR (ErbB1) T790M L858R: The 2×EGFR (ErbB1) […] mixture is prepared in 50 mM HEPES pH 6.5, 0.01% BRIJ-35, 10 mM MgCl2, 1 mM EGTA, 0.02% NaN3. […] After the 1 hour Kinase Reaction incubation, 5 μL of a 1:64 dilution of Development Reagent B is added. Reaction starts by 30-second shaking of mixture consisting of 2.5 μL 4× test compound, […] 2× kinase reaction mixture and 2.5 μL 4×ATP Solution on Bar-coded Corning, low volume NBS, black 384-well plate (Corning Cat. #3676). Then the mixture is incubated for 60-minute at room temperature for the kinase reaction, followed by addition of 5 μL of a 1:1024 dilution of development reagent A and 30-second plate shake. The mixture is then incubated for another 60-minute at room temperature for development reaction. Finally fluorescence is read by plate reader. To determine IC50 of a compound against EGFR, EGFR mutant and other kinases, a series of concentrations of the compound were tested for the inhibition.

[3] = system: H1975 cells; experiment: Inhibition of cancer cell growth, MTT assay, H1975; settings: Homo sapiens, NCI-H1975, 72 h, read-out: IC50 in H1975 cells

Sequence of EGFR (ErbB1) (P00533 25-1210): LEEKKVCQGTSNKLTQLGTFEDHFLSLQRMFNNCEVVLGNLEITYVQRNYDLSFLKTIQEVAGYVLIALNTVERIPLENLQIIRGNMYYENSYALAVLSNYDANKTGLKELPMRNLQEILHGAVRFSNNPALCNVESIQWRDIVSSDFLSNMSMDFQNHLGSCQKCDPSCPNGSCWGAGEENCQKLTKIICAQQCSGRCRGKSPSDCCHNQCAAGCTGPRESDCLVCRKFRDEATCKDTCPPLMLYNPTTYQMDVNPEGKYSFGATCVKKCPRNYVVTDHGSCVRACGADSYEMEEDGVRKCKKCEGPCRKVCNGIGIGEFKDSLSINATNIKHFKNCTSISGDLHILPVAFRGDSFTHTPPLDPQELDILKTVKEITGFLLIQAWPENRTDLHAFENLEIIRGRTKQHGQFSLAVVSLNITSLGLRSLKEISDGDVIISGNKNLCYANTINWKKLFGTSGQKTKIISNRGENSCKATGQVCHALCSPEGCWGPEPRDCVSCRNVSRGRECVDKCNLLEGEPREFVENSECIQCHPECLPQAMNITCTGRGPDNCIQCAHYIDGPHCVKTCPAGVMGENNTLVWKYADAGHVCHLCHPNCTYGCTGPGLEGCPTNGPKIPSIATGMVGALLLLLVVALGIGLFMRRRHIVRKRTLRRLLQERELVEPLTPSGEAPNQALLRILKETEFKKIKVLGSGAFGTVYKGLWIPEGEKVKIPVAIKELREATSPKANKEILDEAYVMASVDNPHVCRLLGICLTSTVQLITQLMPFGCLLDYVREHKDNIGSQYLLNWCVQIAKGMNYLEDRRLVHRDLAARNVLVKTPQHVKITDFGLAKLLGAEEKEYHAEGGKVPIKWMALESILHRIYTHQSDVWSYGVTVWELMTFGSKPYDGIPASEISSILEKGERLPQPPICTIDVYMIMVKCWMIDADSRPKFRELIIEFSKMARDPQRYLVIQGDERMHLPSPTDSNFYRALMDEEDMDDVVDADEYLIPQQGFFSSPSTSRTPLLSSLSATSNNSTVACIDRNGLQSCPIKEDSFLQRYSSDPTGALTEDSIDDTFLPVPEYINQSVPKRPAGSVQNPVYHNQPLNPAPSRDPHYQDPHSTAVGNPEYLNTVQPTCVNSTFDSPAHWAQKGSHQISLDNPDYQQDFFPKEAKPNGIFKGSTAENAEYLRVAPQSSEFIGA

| Compound | inhibition at 0.041 µM [1] | inhibition at 0.0137 µM [2] | IC50 [3] |
| --- | --- | --- | --- |
| CCC(=O)Nc1cccc(-c2c(C)ccc3cnc(Nc4ccc(N5CCN(C)CC5)cc4)nc23)c1 [Example C042, N-(3-(7-methyl-2-((4-(4-methylpiperazin-1-yl)phenyl)amino)quinazolin-8-yl)phenyl)propionamide] | > 50% | < 50% | > 500 nM |
| CC(=O)N1CCN(c2ccc(Nc3ncc4cccc(-c5cccc(NC(=O)/C=C/CN(C)C)c5)c4n3)cc2)CC1 [Example C050, (E)-N-(3-(2-((4-(4-acetylpiperazin-1-yl)phenyl)amino)quinazolin-8-yl)phenyl)-4-(dimethylamino)but-2-enamide] | < 50% | > 50% | > 500 nM |
| CN(C)C/C=C/C(=O)Nc1cccc(-c2cccc3cnc(Nc4ccc(N5CCN(C)CC5)cc4)nc23)c1 [Example C052, (E)-4-(dimethylamino)-N-(3-(2-((4-(4-methylpiperazin-1-yl)phenyl)amino)quinazolin-8-yl)phenyl)but-2-enamide] | < 50% | > 50% | 100 to 500 nM |
| CN(C)C/C=C/C(=O)Nc1cccc(-c2cccc3cnc(Nc4ccc(N5CCN(C)CC5)cc4)nc23)c1F [Example C062, (E)-4-(dimethylamino)-N-(2-fluoro-3-(2-((4-(4-methylpiperazin-1-yl)phenyl)amino)quinazolin-8-yl)phenyl)but-2-enamide] | > 50% | > 50% | 100 to 500 nM |
| C=CC(=O)Nc1cccc(-c2cccc3cnc(Nc4ccc(N(C)CCF)cc4)nc23)c1 [Example C064, N-(3-(2-((4-((2-fluoroethyl)(methyl)amino)phenyl)amino)quinazolin-8-yl)phenyl)acrylamide] | < 50% | < 50% | > 500 nM |
| C=CC(=O)Nc1cccc(-c2cccc3cnc(Nc4ccc(N(C)CCF)cc4)nc23)c1F [Example C065, N-(2-fluoro-3-(2-((4-((2-fluoroethyl)(methyl)amino)phenyl)amino)quinazolin-8-yl)phenyl)acrylamide] | < 50% | < 50% | 100 to 500 nM |
| C=CC(=O)Nc1cccc(-c2cccc3cnc(Nc4ccc(N5CCN(CCO)CC5)c(F)c4)nc23)c1 [Example C142, N-(3-(2-((3-fluoro-4-(4-(2-hydroxyethyl)piperazin-1-yl)phenyl)amino)quinazolin-8-yl)phenyl)acrylamide] | – | – | < 100 nM |
| C=CC(=O)Nc1cccc(-c2cccc3cnc(Nc4ccc(OC5CCN(CCF)CC5)cc4F)nc23)c1 [Example C157, N-(3-(2-((2-fluoro-4-((1-(2-fluoroethyl)piperidin-4-yl)oxy)phenyl)amino)quinazolin-8-yl)phenyl)acrylamide] | – | < 50% | > 500 nM |
| C=CC(=O)Nc1cccc(-c2cccc3cnc(Nc4ccc(-n5cccn5)cc4)nc23)c1 [Example C158, N-(3-(2-((4-(1H-pyrazol-1-yl)phenyl)amino)quinazolin-8-yl)phenyl)acrylamide] | – | < 50% | 100 to 500 nM |
| C=CC(=O)Nc1cccc(-c2cccc3cnc(Nc4ccc(-c5cn[nH]c5)cc4)nc23)c1 [Example C159, N-(3-(2-((4-(1H-pyrazol-4-yl)phenyl)amino)quinazolin-8-yl)phenyl)acrylamide] | – | < 50% | > 500 nM |
| C=CC(=O)Nc1cccc(-c2cccc3cnc(Nc4cc(F)c(N5CCN(C)CC5)cc4F)nc23)c1 [Example C160, N-(3-(2-((2,5-difluoro-4-(4-methylpiperazin-1-yl)phenyl)amino)quinazolin-8-yl)phenyl)acrylamide] | – | < 50% | 100 to 500 nM |
| C=CC(=O)Nc1cccc(-c2cccc3cnc(Nc4cc(F)c(N5CCN(CC(C)(C)O)CC5)cc4F)nc23)c1 [Example C163, N-(3-(2-((2,5-difluoro-4-(4-(2-hydroxy-2-methylpropyl)piperazin-1-yl)phenyl)amino)quinazolin-8-yl)phenyl)acrylamide] | – | – | 100 to 500 nM |
